System: Chlorella vulgaris
Assay: Reproduction of green cells: chlorella cultivation, cell count at 8th day
Assay type: cell-based
Conditions: chlorella cell number at 8th day (192 hours); relative value, control area = 100; concentrations (ppm) as in Table 1
Description: (§1) In case of a unicellular organism, an individual of this organism can be used itself as a green cell. […] When chlorella is used, a test substance acting as a plant-activating agent is added to an inorganic salt medium for chlorella (test area), and the number of cells (cells/ml) when cultivation is conducted for a certain period can be compared with the number of cells (cells/ml) in the non-added system cultivated under the same condition (control area), for calculation. Further, cells in the form of callus can also be used. As the callus, a liverwort (Harchantia polymorpha L.) callus may be exemplified. When a callus is used, the test substance acting as a plant-activating agent is added to e.g. a sterilized medium for calluses (test area), and the weight of callus when cultivation is conducted for a certain period can be compared with the weight of callus of the non-added system cultivated under the same condition (control area), for calculation. In any case, the concentration of the test substance in the test area is not limited but suitably from 0.1 to 1000 ppm in terms of effective components.
Herein, the substance acting as the plant-activating agent has been added in a concentration of 10 ppm in terms of effective components into a culturing solution in the test area. This substance is not added into the control area. After sterilization, the temperature of the medium is returned to a normal temperature. The number of Chlorella vulgaris which has been sub-cultivated previously is counted under a microscope using a blood cell counting chamber of Thoma, and chlorella is added to the sterilized medium so as to have a concentration of 1.0×10^5 (cells/ml). These operations are conducted in a clean bench when the sterilized condition is necessary. Cultivation is carried out in a shaking incubator rotating at 110 rpm at 23° C. under continuous illumination (with illuminance of 10 klx.) with carbon dioxide and humidity under natural conditions.
This measurement is repeated five times in each area, and the average values (P0, P1) are made as the number of chlorella after cultivation.

For `O=C([O-])CCC(=O)[O-].[Na+].[Na+]` [Comparative product 1-2, Sodium succinate, reference compound], which “Improved degree in reproduction of green cells” value (shortened to “Improved degree in reproduction”) is on record?
Its value is 90.

“Citric acid monooleyl axnide [Inventive product 1-8]” was tested. Which “Improved degree in reproduction” value did it give?
Its value is 148.

With “POE(20) sorbitan oleate [Comparative product 1-1, reference compound]” as the compound, how does the “Improved degree in reproduction” value read?
The value was 85.

For “POE(1) stearyl ether [Inventive product 1-11]”, which “Improved degree in reproduction” value is on record?
Its value is 160.

Which “Improved degree in reproduction” value does the source give for `O=C([O-])CN(CCN(CC(=O)[O-])CC(=O)[O-])CC(=O)[O-].[Na+].[Na+].[Na+].[Na+]` [Comparative product 1-3, EDTA-4Na, reference compound] here?
The value was 92.

For “Stearic acid monoglyceride [Inventive product 1-23]”, which “Improved degree in reproduction” value is on record?
Its value is 140.

For “Stearic acid diglyceride [Inventive product 1-13]”, which “Improved degree in reproduction” value is on record?
The value was 140.

How did the “Improved degree in reproduction” value turn out when Vitamin B12 [Inventive product 1-19] was run?
The value was 110.

For `Cc1ncc(CO)c(CO)c1O` [Inventive product 1-18, Vitamin B6], which “Improved degree in reproduction” value is on record?
The value was 118.

Same assay, conditions: chlorella cell number at 8th day (192 hours); relative value, control area = 100; concentrations (ppm) as in Table 2

With `Cc1ncc(CO)c(CO)c1O` [Inventive product 2-16, Vitamin B6] as the compound, how does the “Improved degree in reproduction” value read?
Its value is 122.

Which “Improved degree in reproduction” value does the source give for `O=C([O-])CCC(=O)[O-].[Na+].[Na+]` [Comparative product 2-2, Sodium succinate, reference compound] here?
Its value is 92.

For `CCCCCCCCCCCCCCCCCC(=O)O` [Inventive product 2-1, Stearyl acid], which “Improved degree in reproduction” value is on record?
Its value is 156.

For “POE(1) stearyl ether [Inventive product 2-9]”, which “Improved degree in reproduction” value is on record?
Its value is 153.

`O=C([O-])CN(CCN(CC(=O)[O-])CC(=O)[O-])CC(=O)[O-].[Na+].[Na+].[Na+].[Na+]` [Comparative product 2-3, EDTA-4Na, reference compound] was tested. Which “Improved degree in reproduction” value did it give?
Its value is 90.

Vitamin B12 [Inventive product 2-17] was tested. Which “Improved degree in reproduction” value did it give?
The value was 118.

“POE(20) sorbitan oleate [Comparative product 2-1, reference compound]” was tested. Which “Improved degree in reproduction” value did it give?
Its value is 80.

How did the “Improved degree in reproduction” value turn out when “Stearic acid diglyceride [Inventive product 2-11]” was run?
The value was 136.

System: liverwort callus cells
Assay: Reproduction of green cells: liverwort callus cultivation, fresh weight at 10th day
Assay type: cell-based, liverwort (Harchantia polymorpha L.)
Conditions: liverwort callus fresh weight at 10th day (240 hours); relative value, control area = 100; concentrations (ppm) as in Table 7
Description: as §1
100 ml of the medium (MSK2 medium) for liverworts were placed into a 500-ml Erlenmeyer flask, and the flask was capped with a silicon cap having its ventilative property and placed into an autoclave (at a high temperature, under a high pressure, and a sterilized oven) to sterilize the medium (for 20 minutes). Herein, the substance acting as the plant-activating agent was added in a concentration shown in Table 7 into a culturing solution in the test area. After sterilization, the temperature of the medium was returned to a normal temperature. 2 ml of liverwort callus cells under a steady state, which had been sub-cultivated previously, were sucked up by a 2-ml Komagome pipette (measuring pipet) and incubated to the sterilized medium. These operations are conducted in a clean bench when sterilized condition is necessary. Cultivation is carried out in a shaking incubator rotating at 110 rpm at 23° C. under continuous illumination (with illuminance of 10 klx.) with carbon dioxide and humidity under natural conditions. Tenth day (after 240 hours) after starting the cultivation, the whole culturing solution in each area was filtrated under suction, and the fresh weight (raw weight) (g) of the callus cell was measured. This was made as the amount in reproduction of green cells, and the improved degree in reproduction of green cells was measured by the above-described formula.

How did the “Improved degree in reproduction” value turn out when `O=S(=O)([O-])CCO.[Na+]` [Inventive product 5-3, Sodium isethionate] was run?
The value was 115.

With `CCCCCCCC/C=C\CCCCCCCCNC(=O)CC(O)(CC(=O)O)C(=O)O` (stereo not shown) [Inventive product 5-8, Citric acid oleyl amide] as the compound, how does the “Improved degree in reproduction” value read?
The value was 125.

How did the “Improved degree in reproduction” value turn out when `CC(C)C[C@H](N)C(=O)O` [Inventive product 5-20, L-leucine] was run?
The value was 110.

How did the “Improved degree in reproduction” value turn out when `O=C([O-])CCC(=O)[O-].[Na+].[Na+]` [Comparative product 5-2, Sodium succinate, reference compound] was run?
The value was 91.

How did the “Improved degree in reproduction” value turn out when `CCCCCCCCCCCCCCCCCC(=O)O` [Inventive product 5-1, Stearic acid] was run?
The value was 120.

For `CCCCCCCCCCCCCCCCCCOCCCCCCCCCCCCCCCCCC` [Inventive product 5-9, Distearyl ether], which “Improved degree in reproduction” value is on record?
Its value is 135.

Which “Improved degree in reproduction” value does the source give for “Stearic acid monoglyceride [Inventive product 5-23]” here?
The value was 118.

Which “Improved degree in reproduction” value does the source give for `N[C@@H](CCC(=O)[O-])C(=O)[O-].[Na+].[Na+]` [Inventive product 5-4, Sodium glutamate] here?
The value was 105.
